Values quoted from earlier work in patent publication US8216786B2, “Genetic polymorphisms associated with cardiovascular diseases, methods of detection and uses thereof” (Celera Corporation, priority 2008, dated 2012).

Tested on: animal models and myocyte cultures
Details: compared to lipophilic statins; cited from earlier work

CC[C@H](C)C(=O)O[C@H]1C[C@H](O)C=C2C=C[C@H](C)[C@H](CC[C@@H](O)C[C@@H](O)CC(=O)O)[C@H]21 [pravastatin]
myopathic potential: low myopathic potential
